# Laboratory results published in a melting point compilation (Tetko et al.; mined from patent text by program, amines drawn as free bases though some values may be those of a salt).
row,SMILES,melting point [°C]
1,FC(F)(F)c1cccc(N=c2ccn3ccccc3c2)c1,134 to 135
2,Nc1c(Br)cc(S(N)(=O)=O)cc1[N+](=O)[O-],216 to 218
3,CC(C)[C@@H](NS(=O)(=O)N1CCC(Oc2ccc(Cl)cn2)CC1)C(=O)NO,97 to 98.4
4,CCN1CCN(C(=O)c2ccc(N)cc2Cl)CC1,123 to 124
5,CC/C(=C(\c1ccc(I)cc1)c1ccc(OCCCCCBr)cc1)c1ccccc1,78 to 80
6,CC(C)(OCc1cc(-c2ccc(Cl)cc2)no1)C(=O)N1CCCCC1,239 to 242
7,CC(C)(C(=O)NCCC#N)c1ccc(C(=O)Nc2cn3cc(Cl)ccc3n2)cc1,208 to 209
8,O=C(O)COc1cccc2c1CCc1sc(SCc3ccc(-c4ccccc4)cc3)nc1-2,198 to 200
9,CC(C)(C)c1cc(C(=O)Nc2ccccc2NC(=O)NCC(c2ccccc2)c2ccccc2)cc(C(C)(C)C)c1O,198 to 200
10,CCOC(=O)c1cn(Cc2ccc(F)cc2)c2ccc(C(C)=O)cc2c1=O,207 to 209
11,CCC(=O)N1CCNC1=NC#N,208 to 210
12,O=C(NCCBr)Oc1ccccc1,57 to 60
13,COc1cccc(Oc2cccnc2C#N)c1,112 to 114
14,Nc1ccc(NCCNS(=O)(=O)c2ccccc2)cc1,144
15,Cc1cc(=O)oc2nn(Cc3ccncc3)c(C)c12,177 to 180
16,O=C(O)CCCn1c(=O)c2ccccc2n(CCCCN2CCC(OC(c3ccccc3)c3ccccc3)CC2)c1=O,132 to 133
17,COC(=O)c1ccc(N2CC(CNC(C)=S)OC2=O)cc1F (stereo unspecified),152 to 154
18,OCC1CNc2ncccc2O1 (stereo unspecified),123 to 124
19,COc1c(N2CCC(n3ccnn3)C2)c(F)c(N)c2c(=O)c(C(=O)O)cn(C3CC3)c12 (stereo unspecified),208
20,O=C(O)/C=C/c1ccc(C(=C2CCCCCC2)c2ccc(O)c(Cl)c2)cc1,155 to 156
21,CC(=O)Oc1cccc2c1OC(C)(C)C2,49 to 50
22,CCOC(=O)C(=CNc1cnc2ccccc2n1)c1ccccc1,193 to 194
23,COCc1c(C(=O)c2ccccc2)ncc2[nH]c3cccc(Cc4ccccc4Cl)c3c12,147 to 148
24,CC(=O)C(CCCc1ccccc1)n1cnc2c(=O)[nH]c(Cc3ccc(OC(F)F)c(N)c3)nc21 (stereo unspecified),149 to 150
25,C=CCNC(=O)C=Cc1cccc(F)c1,84.5 to 87
26,O=c1[nH]c2ccccc2n1Cc1ccc(OC(F)(F)F)cc1,145 to 148

row,SMILES,melting point [°C]
1,CC(C)(C)OC(=O)N[C@@H](CC1CCCCC1)[C@@H](O)[C@@H](O)CN=[N+]=[N-],93 to 94
2,COC(=O)C1Cc2c([nH]c3ccccc23)C(c2c(Cl)cccc2Cl)N1 (stereo unspecified),102 to 105
3,O=S(=O)(c1ccccc1)c1ccc(Oc2ccc(Cl)c(Cl)c2)nc1,113 to 114
4,COc1ccc(C2CNCc3ccc(C)cc32)cc1OC (stereo unspecified),94 to 96
5,COc1ccc(-c2cc(=S)n(Cc3ccc(F)cc3F)nc2-c2ccc(OC)cc2)cc1,175 to 176
6,O=C(O)c1ccc(C2OC23Cc2ccccc2C3=O)cc1 (stereo unspecified),220
7,CC1CC(C)CN(Cc2ccc(NC(=O)C#Cc3ccc(-c4ccc(Cl)cc4)cc3)cc2)C1 (stereo unspecified),209 to 214
8,CC(=O)NC1CC(N)(C(=O)O)C2C(C(=O)O)C12 (stereo unspecified),> 275
9,NS(=O)(=O)c1cnc(-c2cccs2)s1,134 to 136
10,CCCCOCCOc1ccc(-c2ccc3c(c2)C=C(C(=O)Nc2ccc(SCc4nccn4CCCC(N)=O)cc2)CCN3CC(C)C)cc1,142 to 143
11,CC[C@@]12C[C@H](O)[C@](O)(c3c(F)cccc3F)C[C@H]1CCc1cc(O)ccc12,198 to 200
12,CC(C)(C)OC(=O)NCC(=O)N[C@@H](Cc1ccccc1)C(=O)O,138 to 141
13,CC1(C)CC(=O)Nc2cc(-c3nc4ccccc4[nH]3)ccc21,314 to 316
14,COc1ccc2c(C)c3n(c2c1)CCCC3NC=O (stereo unspecified),181 to 182
15,Nc1ccc(CCO)c(N)c1,67 to 72
16,O=c1c2c(n(-c3ccccc3)c3ccccc13)OCC2,220 to 221
17,CC(C)(Cc1ccccc1)C(NC(=O)c1ccc(Cl)cc1)NC(=N[N+](=O)[O-])Nc1cccnc1 (stereo unspecified),205 to 207
18,Cc1c(NC(=O)c2ccc(-c3ccc(F)cc3)cc2)ccc2cc(CN3CCC(CC(N)=O)CC3)cnc12,258 to 260
19,CSc1nc(-c2nn[nH]n2)c(I)c(C(F)(F)F)n1,196 to 200
20,O=C1OC2(CCN(C(=O)Nc3cnc(-c4ccc(O)cc4)cn3)CC2)c2ccccc21,263 to 265
21,Cc1ccc2nc(-c3ccccc3)cc(Cl)c2c1,90 to 93
22,CCCC(=O)Nc1c(Br)cc(C(=O)OCC)cc1CN(CC)CC,134
23,CCOC(=O)c1cc2ccc(N(CC)CC)cc2oc1=O,77 to 78
24,CN1CCN(c2ccccc2CO)[C@@H]2c3ccccc3C[C@H]21 (relative stereo),166 to 167
25,O=[N+]([O-])c1cccc(C=NC2CCOc3ccccc32)c1 (stereo unspecified),117 to 118
26,CCCC[C@H]1CC[C@H](c2ccc(OC(=O)[C@H]3CC[C@H](CCC)C3)cc2)CC1 (relative stereo),90

row,SMILES,melting point [°C]
1,Cc1ccc2c(c1)C=Cc1cc(C)ccc1C2c1cn(Cc2nc(C(=O)O)co2)c(=O)[nH]c1=S,273
2,O=C(O)CC(Sc1ccccc1)c1ccccc1 (stereo unspecified),85 to 90
3,Cc1nc2sccn2c1C1=NNC(=O)CN1,270 to 273
4,NC(=O)C1CN1C(=O)Oc1ccccc1 (stereo unspecified),140 to 142
5,CCn1cc(C(=O)O)c(=O)c2cc(F)c(Cl)nc21,265 to 267
6,C=CCOc1cccc2c1ONC(=O)C2,174 to 175
7,CCOC(=O)c1cc(C)n(-c2cccnc2)c1-c1ccccc1,102 to 103
8,Oc1ccc(Cc2ccccc2)c2cccnc12,112 to 113
9,Cc1ccc(C(=O)c2ccc3[nH]c(=O)nc(-c4cccc(Cl)c4)c3c2)cc1,181
10,Cc1cccc2c(C3=CCN(C[C@H](O)COc4cccc5[nH]ccc45)CC3)c[nH]c12,155 to 158
11,Nc1cc(C(=O)OCc2ccccc2)ccc1OCc1ccccc1,79 to 81
12,COc1ccc(C2CCN(C(=O)C(=O)NO)CC2)cc1OC1CCCC1,124
13,Cc1oc(-c2ccccc2)nc1CCc1nc(COc2cccc(CC(=O)O)c2)cs1,153 to 154
14,Cn1c(C2CC2)nc2c1CCCC2=O,108
15,COC(=O)c1cn(-c2ccc(O)cc2C)c(C2CCNCC2)cc1=O,226 to 228
16,O=C(CCc1ccc(O)cc1)OCCC(c1ccccc1)(c1ccccc1)c1ccccc1,105 to 107
17,O=C(Nc1cccc(S(=O)(=O)NC2CC2)c1)c1cnn2c(C(F)(F)F)cc(-c3ccc(Cl)cc3)nc12,257
18,CS(=O)(=O)Nc1cc2occ(NC(N)=O)c(=O)c2cc1Oc1ccccc1,> 250
19,CC(c1ccc(-c2ccccc2)c(F)c1)c1nc(CCCl)no1 (stereo unspecified),72 to 72.5
20,C=CCNc1cccnc1S(N)(=O)=O,134 to 135
21,C=CCOc1ccc(-c2ccc(C(=O)OCC)cc2)cc1,89 to 92
22,COc1ccc(Nc2nc(Nc3ccc(OC)c(Cl)c3)nc(OCC3CCCCC3)n2)cc1Cl,188
23,Nc1cccc(-n2c(=O)c(Cc3cccnc3)nc3cccnc32)c1,168 to 170
24,COc1cc(C=C2COCC3=C2N=C2SCCN2C3c2cc(OC)c(OC)c(OC)c2)cc(OC)c1OC (stereo unspecified),153 to 155
25,CCN(C)C(=O)NC(=O)Nc1ccccc1,157 to 159
26,CCOc1ccc2c(c1)n(C1CCCCC1)c(=O)n2S(=O)(=O)c1ccc(C(=O)NC(C)(C)C)cc1OC,252

row,SMILES,melting point [°C]
1,Nc1ccccc1C(=O)Nc1ccc(Br)c(C(F)(F)F)c1,142 to 144
2,O=c1c(O)c(-c2nnc(Cc3ccc(F)cc3)o2)oc2ccccc12,221
3,COc1c(Cl)ccc(-c2cc(N)c(Cl)c(C(=O)NOCc3nnsc3Cl)n2)c1F,179 to 181
4,O=C1C(=Cn2ccnc2)C(c2ccccc2)c2ccccc21 (stereo unspecified),204 to 206
5,Fc1ccc(F)c(C=C2CCNc3nc(Br)ccc32)c1,178 to 179
6,Cn1c2c(c3c4c(N)nc(N)nc4ccc31)CCCC2,288 to 292
7,O=C(Nc1cc(CCCS(=O)(=O)c2ccc(Cl)cc2)ccc1OCc1nnn[nH]1)c1cccc(OCc2nc3ccccc3s2)c1,189 to 191
8,COc1cc2nc(N3CCN(C#N)CC3)nc(N)c2cc1OC,215
9,CC(OC(=O)c1ccccc1)C(N)=S (stereo unspecified),100 to 101
10,CC(C)=CCc1c(O)ccc(C(=O)C=Cc2ccc(O)cc2)c1O,75 to 76
11,O=C(O)CCCC1Cc2ccc(Cl)cc2C1=O (stereo unspecified),141 to 142
12,Cc1cccc2c(=O)nc(-c3cccc(C(=O)NCCCCCCNC(=O)OC(C)(C)C)n3)sc12,171 to 172
13,Cc1ccc(C)c(OCCCC(C)(C)C(=O)Nc2cccc(-c3nnc(C)o3)c2)c1,90 to 92
14,CN1CCN(C(=O)CCC(=O)N[C@@H]2CN3C(=O)N(c4cc(Cl)nc(Cl)c4)C(=O)[C@@]3(Cc3ccc(OC(F)(F)F)cc3)C2)CC1,70
15,Cc1c(OCC(=O)O)ccc2c(=O)c3c(F)cccc3oc12,259 to 261
16,CN(C)c1ccc(C=C2C=C(C(C)(C)C)C(=O)C(C(C)(C)C)=C2)cc1,175
17,COc1ccc(C=O)c(OC)c1C,51 to 52
18,CCOC(=O)C1CSC(COc2ccc(OC)cc2)N1C(=O)CCl (stereo unspecified),69 to 71
19,Cc1ccc(N2CCN(c3c(C)c(C)c4c(c3C)CC(C)(C)O4)CC2)cc1,152 to 155
20,Fc1cc(Cl)c2ccc(C(F)(F)F)cc2n1,94 to 95
21,O=C(O)c1cn2c3c(cc(F)cc3c1=O)C1CCCCC12 (stereo unspecified),281 to 282
22,Cc1sc(-c2ccccc2)nc1COc1ccc(CCC[C@@H](O)C(=O)O)cc1,117 to 118
23,COC(=O)CCSSN=C1C(=O)N(C)C(=O)N1c1ccccc1F,81 to 84.5
